Data: PMC8249783, “A novel multikinase inhibitor SKLB‐YTH‐60 ameliorates inflammation and fibrosis in bleomycin‐induced lung fibrosis mouse models” (Cell Proliferation, 2021)
Values after ≈ are worked out from the molar mass of the structure shown. Read-outs that look alike come from different tables or passages of the source.

Columns and labels:
[1] = Pharmacokinetics study after IV and PO administration to SD rats; format: in vivo; details: rat, plasma; for AUC / MRT: SD
Description: The appropriate amount of YTH‐60 was accurately weighed, added to the final volume of 5% DMSO, 40% PEG400 and 55% normal saline, and vortexed or ultrasonicated to fully mix. Then, 0.4 and 2 mg·mL^−1 of clarified dosing solution was used for intravenous administration and oral gavage administration. SD rats were transferred from the Experimental Animal Library (999 M‐017), Shanghai Xipuer‐Beikai Experimental Animal Co. Ltd. After oral, intravenous or intragastric administration, blood was collected by jugular vein or other suitable methods. Approximately 0.20 mL of each sample was collected, in the presence of heparin sodium as an anticoagulant. After the blood samples were collected, they were placed on ice and centrifuged to separate plasma within 2 hours (centrifugation conditions: centrifugal force 6800 g, 6 minutes, 2‐8°C). The collected plasma samples were stored at −80°C before analysis by LC‐MS/MS‐18. After analysis, the remaining plasma samples were stored at −80°C for a period of 1 month.

[2] = Determination of thermodynamic solubility; format: physicochemical; details: for solubility at 5 min: thermodynamic from solid, double testing
Description: Weigh about 1 mg of the test compound into 1.5 mL centrifuge tube and add 0.5 mL various solvents, sonicating for 5 minutes (if the compound is completely dissolved, then added again test compound until a little solid remains). Take the supernatant after centrifugation, diluting to a suitable concentration using and measuring absorbance values by UV spectrophotometer. Weigh 10 mg compound accurately of the test compound into 1.5 mL centrifuge tube and add 1.2 mL methanol solution to prepare 8.3 mg·mL^−1 mother solution. Take the above described mother liquor to prepare the solution in concentrations of 8.3, 4.2, 2.1, 1.0, 0.52, 0.26 mg·mL^−1 then measure absorbance value. With concentration c (mg·mL^−1) as the abscissa, absorbance A as the ordinate, mapping and fitting line to get the standard curve (The correlation coefficient should be greater than 0.998). Calculate solubility according to the standard curve of the linear equation.

[3] = Sprague-Dawley, iv, 2 mg/kg, IV 2 mg/kg, individual animals 101, 102, 103, read-out: Individual plasma concentration
[4] = Sprague-Dawley, iv, 2 mg/kg, IV 2 mg/kg, read-out: Mean plasma concentration
[5] = Sprague-Dawley, po, 20 mg/kg, PO 20 mg/kg, individual animals 201, 202, 203, read-out: Individual plasma concentration
[6] = Sprague-Dawley, po, 20 mg/kg, PO 20 mg/kg, read-out: Mean plasma concentration

## COc1cc(OC)c(Cl)c(-c2ccc3c(/C=C/c4ccc(N(C)C(=O)CN5CCN(C)CC5)cc4)n[nH]c3c2)c1Cl [YTH‐60, (E)‐N‐(4‐(2‐(6‐(2,6‐dichloro‐3,5‐dimethoxyphenyl)‐1H‐indazol‐3‐yl)vinyl)phenyl)‐N‐methyl‐2‐(4‐methylpiperazin‐1‐yl)acetamide]
[1]; po, 20 mg/kg, SD rats, 20 mg·kg^−1 oral administration, read-out: mean AUC(0‐t)
  AUC: 1380 ng·h/mL
[1]; po, 20 mg/kg, SD rats, p.o. 20 mg·kg^−1, read-out: AUC0‐t
  AUC: 1380 ± 152 ng·h/mL
[1]; po, 20 mg/kg, SD rats, p.o. 20 mg·kg^−1, read-out: AUC0‐∞
  AUC: 1610 ± 177 ng·h/mL
[1]; po, 20 mg/kg, SD rats, p.o. 20 mg·kg^−1, read-out: MRT0‐t
  MRT: 8.38 ± 0.31 h
[1]; po, 20 mg/kg, SD rats, p.o. 20 mg·kg^−1, read-out: MRT0‐∞
  MRT: 12.4 ± 2.67 h
[1]; [3]
  concentration at 0.083 h: 355 ng/mL
  concentration at 0.25 h: 187 ng/mL
  concentration at 0.5 h: 153 ng/mL
  concentration at 1 h: 112 ng/mL
  concentration at 24 h: 2.27 ng/mL
[1]; [4]
  concentration at 0.083 h: 380 ng/mL
  concentration at 0.25 h: 187 ng/mL
  concentration at 0.5 h: 149 ng/mL
  concentration at 1 h: 117 ng/mL
  concentration at 24 h: 2.82 ng/mL
[1]; Sprague-Dawley, iv, 2 mg/kg, IV 2 mg/kg, 8 h, read-out: Mean plasma concentration
  concentration at 8 h: 25 ng/mL
[1]; [5]
  concentration at 0.25 h: 33.6 ng/mL
  concentration at 0.5 h: 40.6 ng/mL
  concentration at 1 h: 35.9 ng/mL
  concentration at 24 h: 24.5 ng/mL
[1]; [6]
  concentration at 0.25 h: 31.6 ng/mL
  concentration at 0.5 h: 33.8 ng/mL
  concentration at 1 h: 32.1 ng/mL
  concentration at 24 h: 19.1 ng/mL
[1]; iv, SD rats, i.v. 2 mg·kg^−1
  Cmax: 380 ± 37 ng/mL
  Tmax: 0.08 h
  half-life: 4.92 ± 0.17 h
[1]; iv, SD rats, i.v. 2 mg·kg^−1, unit inferred
  clearance: 42.5 mL/min/kg
[1]; po, SD rats, p.o. 20 mg·kg^−1
  Cmax: 95.8 ± 16.6 ng/mL
  Tmax: 4.67 ± 2.31 h
  half-life: 8.03 ± 2.16 h
[1]; po, SD rats, p.o. 20 mg·kg^−1, read-out: F (oral bioavailability)
  bioavailability: 17.9 ± 1.97%
[2]
  solubility compared with Nintedanib (in words): better solubility than Nintedanib
[2]; organic solvent or mixture, Acetone, read-out: Solubility, Acetone
  solubility at 5 min: 83.1 ± 0.89 mg/mL (≈ 140 mM)
[2]; organic solvent or mixture, Acetonitrile, read-out: Solubility, Acetonitrile
  solubility at 5 min: 18.3 ± 1.2 mg/mL (≈ 30.8 mM)
[2]; organic solvent or mixture, Ethyl acetate, read-out: Solubility, Ethyl acetate
  solubility at 5 min: 101 ± 4.02 mg/mL (≈ 170 mM)
[2]; organic solvent or mixture, Ethyl alcohol, read-out: Solubility, Ethyl alcohol
  solubility at 5 min: 77 ± 1.53 mg/mL (≈ 130 mM)
[2]; saline or isotonic, Normal saline, read-out: Solubility, Normal saline
  solubility at 5 min: 12.7 ± 0.15 mg/mL (≈ 21.4 mM)
[2]; Water, read-out: Solubility, Water
  solubility at 5 min: 1.71 ± 0.14 mg/mL (≈ 2.88 mM)
